These results are taken from patent US20230130132A1, “PHARMACEUTICAL COMPOSITIONS COMPRISING AMPHIPHILIC PEPTIDES AND METHODS OF USE THEREOF” (BONE SCI. BIO LTD., priority 2020, published 2023).

A short description of one series: pH of the composition. The class given is physicochemical. The note with it: 5% w/v in deionized water, clear solution.
Series [1] can be described thus: PFD5 sodium dissolved in HCl: peptide to acid mole ratio for stable hydrogel, pKa. The class given is physicochemical. The note with it: aqueous HCl solution (hydrogel); 1% (w/v) PFD5; pH at which half of the Asp residues are assumed protonated. The protocol:
Different mole ratios of PFD5 sodium to HCl were generated by dissolving the peptide in an HCl solution using a magnetic stirrer. Following mixing for a few minutes, hydrogel formation was tested (Table 2 and FIG. 1A-1B). […] At a 1:6 ratio, the stable hydrogel appeared opaquer.
At a 1:4 ratio, the stable hydrogel appeared opaquer.
At this peptide concentration, the mole ratio of the peptide to acid was determined to be 1:1.67 to afford a stable clear hydrogel (FIG. 1B).

No end group written: not given here.

Doxycycline hyclate had a pH of solution in the series “pH of the composition” of 1.93.
On to “PDFDFDFDFDFDP [PFD5, Pro-(Asp-Phe)5-Asp-Pro]”, for which the pKa in series [1] was ~5.95.
